Results: patent US20140243374A1, “Novel Sulfonamides” (The Brigham and Women's Hospital, Inc., priority 2011, published 2014)
“And” between values parts separate entries of the source, which are not always exact repeats. Equal values may be shown once. Where a name gives a salt, the structure may show the parent alone.

Tests used:
Type in all cases: cell-based
[1] = molecular target: T1, γ-secretase (cleavage of APP, Aβ42) (Homo sapiens, UniProt P49768); assay: Aβ (1-42) cellular assay (Aβ ELISA, HEK AP-GL-T1 6 cells); details: cellular Aβ42 ELISA, 24 h compound treatment
T1 construct: endogenous in cells; host or cells: HEK AP-GL-T16 luciferase reporter cells (tetracycline-induced APP substrate)
Procedure: Aβ (1-42) Cellular Assay.
The following assay was used to determine the extent to which the compounds of interest inhibit the cleavage of APP in vivo. AβELISA is a commercial fluorometric kit from Biosource (Invitrogen 89344). Luciferase reporter HEK AP-GL-T1 6 cells were plated at 50,000 cells/well in 96 well plates in DMEM media containing 10% tetracyclin free […], 250 μg/mL zeocin, 200 μg/mL hygromycin, and 5 μg/mL blasticidin. Compounds were added 24 h after plating and APP processing is induced simultaneously by addition of tetracycline. Following a 24 h compound treatment, […] of conditioned cell media is collected, mixed with ELISA diluent buffer containing 2 mM AEBSF and 12 mM o-phenanthroline, and immediately frozen at −80° C. For the ELISA, the samples were brought to room temperature and spun at 5000 rpm for 5 min. Samples ([…]) are incubated in the ELISA plate with […] detection antibody on a shaker at room temperature for 3 h. Wells were then washed 4 times with wash buffer and 100 mL of secondary antibody are added and incubated at room temperature for 30 min. Wells were again washed 4 times with wash buffer and 100 mL of fluorescent substrate solution are added. After 30 minutes of incubation, fluorescent signals are determine on a Gemini reader at ex 460 nm and em 560 nm. The amount of Aβ levels in each sample was determined from a standard curve generated by known concentrations of Aβ peptide run simultaneously with the samples.

[2] = molecular target: T2, γ-secretase (cleavage of Notch) (Homo sapiens, UniProt P49768); assay: Notch cellular assay (luciferase reporter U2OS cells); details: for IC50: U2OS luciferase reporter cells; for Notch Luc/Aβ42: ratio Notch luciferase IC50 to Aβ42 IC50
T2 construct: endogenous in cells; host or cells: U2OS luciferase reporter cells with Tet-on Notch
Procedure: This assay was used to determine if the compounds of interest inhibit the cleavage of Notch by γ-secretase in cells. A U2OS cell line in which the luciferase expression is adjusted by active Notch was used in this assay Notch expression is adjusted using Tet-on promoter. Luciferase reporter U2OS cells are plated at 1000 cells/well in 96 well plates in DMEM containing 100 μg/mL hygromycin, 15 μg/mL blasticidin and 1 μg/mL Tetracycline. Compounds were added 24 h after plating and the cells are lysed 6 days after adding compounds. Luciferase expression was performed using Steady-Glo Luciferase Assay System (Promega).

[3] = molecular target: T3, γ-secretase (Notch cleavage activity) (Homo sapiens, UniProt P49768); assay: Cleaved Notch1 Sandwich ELISA (SUP-T1 cell line); details: for IC50: SUP-T1 cells, 16 h; for Notch Elisa/Aβ42: ratio Notch Elisa IC50 to Aβ42 IC50
T3 construct: endogenous in cells; host or cells: SUP-T1 cells
Procedure: Cleaved Notch1 Sandwich ELISA.
This assay was used to determine if the compounds of interest inhibit the Notch cleavage activity of γ-secretase in SUP-T1 cell line, which endogenously expresses a truncated Notch receptor fragment that is a viable gamma-secretase substrate. The base medium for this cell line is ATCC-formulated RPMI-1640 Medium with fetal bovine serum to a final concentration of 10%. Prepare dilution of SUP-T1 cells in complete growth medium to 1.0×10^6 cells/mL, seed 1.5 mL per well of each cell dilution into a 6-well plate. Collect cells treated with serial diluted compounds in DMSO after 16 h, then using equal amount of protein isolated from samples to measure Notch intracellular cleavage by PathScan® Sandwich ELISA Kit (Cell Signaling Tech 7194S).

| Compound | IC50 [1] | IC50 [2] | Notch Luc/Aβ42 [2] | IC50 [3] | Notch Elisa/Aβ42 [3] | further results |
| --- | --- | --- | --- | --- | --- | --- |
| CC1CCCCC1N(Cc1ccc(C(=O)NCC(F)(F)F)cc1)S(=O)(=O)c1ccc(Cl)cc1 (centres unmarked) [Example 54, 4-((4-Chloro-N-(2-methylcyclohexyl)phenylsulfonamido)methyl)-N-(2,2,2-trifluoroethyl)benzamide] | 2.61 nM | 574 nM | 220 |  |  |  |
| COC[C@@H](C)NC(=O)c1ccc(CN(C2CCCCC2C)S(=O)(=O)c2ccc(Cl)cc2)cc1 (stereo partly drawn) [Example 46, 4-((4-Chloro-N-(2-methylcyclohexyl)phenylsulfonamido)methyl)-N-((R)-1-methoxypropan-2-yl)benzamide] | 0.7 nM | 303 nM |  | 710 nM |  | Notch Luc/Aβ42 ([2]; listed as 46/1221): 432 |
| CC1CCCCC1N(Cc1ccc(C(=O)N[C@H](C)CO)cc1)S(=O)(=O)c1ccc(Cl)cc1 (stereo partly drawn) [Example 4, 4-((4-Chloro-N-(2-methylcyclohexyl)phenylsulfonamido)methyl)-N-((R)-1-hydroxypropan-2-yl)benzamide] | 0.87 nM and 0.65 nM and 0.89 nM |  | 2950 | 180 nM and 120 nM | 188 |  |
| O=C(O)c1ccc(CN(C2CCCCC2F)S(=O)(=O)c2ccc(Cl)cc2)cc1 (centres unmarked) [Example 57, 4-((4-Chloro-N-(2-fluorocyclohexyl)phenylsulfonamido)methyl)benzoic acid] | 50.1 nM and 79.6 nM and 98.5 nM | 28600 nM |  | 1070 nM |  | Notch Luc/Aβ42 ([2]; listed as 57/1231): 376; Notch Elisa/Aβ42 ([3]; listed as 57/1231): 14 |
| O=C(O)c1ccc(CN(C2CCCCC2F)S(=O)(=O)c2ccc(Cl)cc2)cc1 (single isomer, unassigned) [Example 58, 4-((4-Chloro-N-(2-fluorocyclohexyl)phenylsulfonamido)methyl)benzoic acid] | 341 nM and 686 nM and 207 nM | 259000 nM |  | 10100 nM |  | Notch Luc/Aβ42 ([2]; listed as 58/1231A): 630; Notch Elisa/Aβ42 ([3]; listed as 58/1231A): 25 |
| CC(=O)CNC(=O)c1ccc(CN(C2CCCCC2C)S(=O)(=O)c2ccc(Cl)cc2)cc1 (centres unmarked) [Example 48, 4-((4-Chloro-N-(2-methylcyclohexyl)phenylsulfonamido)methyl)-N-(2-oxopropyl)benzamide] | 0.715 nM | 182 nM | 260 | 220 nM | 314 |  |
| COC(=O)c1ccc(CN(C2CCCCC2C)S(=O)(=O)c2ccc(Cl)cc2)cc1 (centres unmarked) [Example 2, Methyl 4-((4-chloro-N-(2-methylcyclohexyl)phenylsulfonamido)methyl)benzoate] | 3.4 nM | 3000 nM |  |  |  |  |
| CC1CCCC(N(Cc2ccc(C(=O)N[C@H](C)CO)cc2)S(=O)(=O)c2ccc(Cl)cc2)C1 (stereo partly drawn) [Example 50, 4-((4-Chloro-N-(3-methylcyclohexyl)phenylsulfonamido)methyl)-N—((R)-1-hydroxypropan-2-yl)benzamide] | 7.32 nM | 10600 nM | 1456 | 2160 nM | 309 |  |
| CC[C@@H](C1CCCC1)N(Cc1ccc(C(=O)OC)cc1)S(=O)(=O)c1ccc(Cl)cc1 [Example 21, (S)-Methyl 4-((4-chloro-N-(1-cyclopentylpropyl)phenylsulfonamido)methyl)benzoate] | 24 nM | 13000 nM | 542 |  |  |  |
| O=C(O)c1ccc(CN(C2CCCC(C(F)(F)F)C2)S(=O)(=O)c2ccc(Cl)cc2)cc1 (single isomer, unassigned) [Example 52, 4-((4-Chloro-N-(3-(trifluoromethyl)cyclohexyl)phenylsulfonamido)methyl)benzoic acid] | 47.6 nM |  |  | 1880 nM |  | Notch Elisa/Aβ42 ([3]; listed as 52/1227C): 40 |
| CC1CCCCC1N(Cc1ccc(C(=O)NCCN(C)C)cc1)S(=O)(=O)c1ccc(Cl)cc1 (centres unmarked) [Example 40, 4-((4-Chloro-N-(2-methylcyclohexyl)phenylsulfonamido)methyl)-N-(2-(dimethylamino)ethyl)benzamide] | 2.56 nM | 3030 nM |  |  |  |  |
| CC1CCCCC1N(Cc1ccc(C(=O)NCCN(C)C)cc1)S(=O)(=O)c1ccc(Cl)cc1 (centres unmarked) [Example 41, 4-((4-Chloro-N-(2-methylcyclohexyl)phenylsulfonamido)methyl)-N-(2-(dimethylamino)ethyl)benzamide hydrochloride] | 5.8 nM and 10.9 nM |  |  | 675 nM and 850 nM | 91 |  |
| CC1CCCCC1N(Cc1ccc(C(=O)NCCC(F)(F)F)cc1)S(=O)(=O)c1ccc(Cl)cc1 (centres unmarked) [Example 55, 4-((4-Chloro-N-(2-methylcyclohexyl)phenylsulfonamido)methyl)-N-(3,3,3 trifluoropropyl)benzamide] | 4.3 nM | 1100 nM | 256 |  |  |  |
| O=C(O)c1ccc(CN(C2CCCCC2C(F)(F)F)S(=O)(=O)c2ccc(Cl)cc2)cc1 (centres unmarked) [Example 68, 4-((4-Chloro-N-(2-(trifluoromethyl)cyclohexyl)phenylsulfonamido)methyl)benzoic acid] | 25.5 nM |  |  | 830 nM | 33 |  |
| C[C@@H](CO)NC(=O)c1ccc(CN(C2CCCCC2C(F)(F)F)S(=O)(=O)c2ccc(Cl)cc2)cc1 (stereo partly drawn) [Example 69, 4-((4-Chloro-N-(2-(trifluoromethyl)cyclohexyl)phenylsulfonamido)methyl)-N—((S)-1-hydroxypropan-2-yl)benzamide] | 2.16 nM |  |  | 94 nM | 44 |  |
| COC(=O)c1ccc(CN([C@@H]2CCCC[C@H]2F)S(=O)(=O)c2ccc(Cl)cc2)cc1 [Example 83, Methyl 4-((4-chloro-N-((1R,2R)-2-fluorocyclohexyl)phenylsulfonamido)methyl)benzoate] | 44.3 nM |  |  | 1570 nM | 35 |  |
| O=C(O)c1ccc(CN(C2CCCC(C(F)(F)F)C2)S(=O)(=O)c2ccc(Cl)cc2)cc1 (centres unmarked) [Example 51, 4-((4-Chloro-N-(3-(trifluoromethyl)cyclohexyl)phenylsulfonamido)methyl)benzoic acid] | 62.2 nM | 3230 nM | 52 |  |  |  |
| O=C(O)c1ccc(CN(C2CCCC(C(F)(F)F)C2)S(=O)(=O)c2ccc(Cl)cc2)cc1 (single isomer, unassigned) [Example 53, 4-((4-Chloro-N-(3-(trifluoromethyl)cyclohexyl)phenylsulfonamido)methyl)benzoic acid] | 1190 nM |  |  | 34800 nM |  | Notch Elisa/Aβ42 ([3]; listed as 53/1227D): 29 |
| O=C(O)c1ccc(CN(C2CCCCC2F)S(=O)(=O)c2ccc(Cl)nc2)cc1 (centres unmarked) [Example 62, 4-((6-Chloro-N-(2-fluorocyclohexyl)pyridine-3-sulfonamido)methyl)benzoic acid] | 135 nM and 261 nM |  |  | 5200 nM | 26 |  |
| CC1CCCCC1N(Cc1ccc(C(=O)O)cc1)S(=O)(=O)c1ccc(Cl)nc1 (centres unmarked) [Example 44, 4-((6-Chloro-N-(2-methylcyclohexyl)pyridine-3-sulfonamido)methyl)benzoic acid] | 6.4 nM and 20 nM |  |  | 2980 nM and 2730 nM | 220 |  |
| CC1CCCCC1N(Cc1ccc(C(=O)NCCC(=O)O)cc1)S(=O)(=O)c1ccc(Cl)cc1 (centres unmarked) [Example 36, 3-(4-((4-Chloro-N-(2-methylcyclohexyl)phenylsulfonamido)methyl)benzamido)propanoic acid] | 80.7 nM | 4580 nM | 57 |  |  |  |
| C[C@H](CO)NC(=O)c1ccc(CN(C2CCCC(C(F)(F)F)C2)S(=O)(=O)c2ccc(Cl)nc2)cc1 (stereo partly drawn) [Example 64, 4-((6-Chloro-N-(3-(trifluoromethyl)cyclohexyl)pyridine-3-sulfonamido)methyl)-N—((R)-1-hydroxypropan-2-yl)benzamide] | 12 nM |  |  | 1070 nM | 89 |  |
